# In patent publication US20180147206A1, “ACTIVATION OF NEURONAL STORE-OPERATED CALCIUM ENTRY PATHWAY FOR THE TREATMENT OF ALZHEIMER'S DISEASE” (The Board of Regents of the University of Texas System, priority 2015, published 2018):
# Assays:
# spine nSOC channels = experiment: GCamp5.3 Ca2+ imaging of synaptic nSOC in cultured hippocampal neurons; assay type: cell-based, mouse
# [1] = system: mushroom spines in hippocampal CA1 neurons; experiment: Dendritic spine analysis in hippocampal slice; assay type: cell-based, mouse; conditions: 6 month-old mice, 300 nM for 3.5 hours
# Protocol: FIGS. 6A-E. NSN21778 rescues mushroom spine and synaptic plasticity defects in AD hippocampal slices. (FIG. 6A) Confocal images of CA1 hippocampal slices from 6 month-old WTGFP, PS1KIGFP, and APPKIGFP mice. The images are shown for untreated slices (CON) and for slices treated with 300 nM NSN21778 (+NSN) for 3.5 hrs prior to fixation. Scale bar is 10 μm. (FIG. 6B) The fraction of mushroom spines in hippocampal CA1 neurons from 6 month-old WTGFP, PS1KIGFP, and APPKIGFP mice. The results are shown for untreated slices (CON) and for slices treated with 300 nM NSN21778 (+NSN). The average fraction of mushroom spines for each group of cells is shown as mean±SE (n≥31 neurons). ***, p <0.001. (FIG. 6C) Sample fEPSP traces are shown for 6 month-old WT and APPKI hippocampal slices prior to stimulation (basal), immediately after tetanus stimulation (induction) and 1 h after tetanus stimulation (after 1 hr). The results are shown for untreated slices and for slices pre-treated with 300 nM NSN21778 (+NSN) for 2-3 hours prior to tetanus stimulation. (FIG. 6D) The normalized and averaged fEPSP slope is shown as a function of time in the experiments with 6 month-old wild-type and APPKI slices with (+NSN) or without 300 nM NSN21778 pre-treatment. […]
# Dendritic Spine Analysis in Hippocampal slice. […] Approximately 25 neurons from 5 mice were analyzed for each genotype. […]
# [2] = In vitro metabolism in liver S9 fractions; assay type: in vitro ADME, mouse; conditions: phase I cofactors (NADPH regenerating system); 2 μM
# Protocol: FIGS. 12A-D. NSN21778 in vitro metabolism stability, in vivo plasma pharmacokinetics, and side effect on body weight (Related to FIGS. 7A-G). (FIG. 12A) The metabolic stability of NSN21778 was evaluated in vitro after incubation with commercial liver S9 fractions in the presence of phase I (NADPH regenerating system) cofactors. Compound levels were determined by LC-MS/MS. Additionally, the stability of NSN21778 in the presence of commercial CD-1 mouse plasma was measured. (FIG. 12B) NSN21778 was dosed i.p. at 10 mg/kg to female CD-1 mice. Levels of NSN21778 in plasma and brain were evaluated by LC-MS/MS. (FIG. 12C) WTGFP, PS1KIGFP and APPKIGFP mice body weight after i.p. administrated with control solution or 10 mg/kg NSN21778 for 10 weeks. Data presented as mean±SE (n=5 mice). (FIG. 12D) Body weight gained for various treatments.
# In vitro metabolism assays. Female ICR/CD-1 mouse S9 fractions were purchased from Celsis/In Vitro Technologies (Baltimore, Md.). 25 μl (0.5 mg) of S9 protein was added to a 15 ml glass screw cap tube. […] The supernatant was analyzed by LC-MS/MS. Stability in commercial mouse CD-1 plasma (Bioreclamation, Westbury, N.Y.) was measured in a similar fashion. […] Reactions were quenched with methanol as above and supernatants evaluated by LC-MS/MS. Compound half-life was determined by the method of substrate depletion as described (McNaney et al., 2008).
compound,measurement,setting,value
"CC(=O)Nc1ccc(CCNc2ncnc3ccc(N)cc23)cc1 [NSN21778, N-{4-[2-(6-Amino-quinazolin-4-ylamino)-ethyl]-phenyl}-acetamide]",spine nSOC,"spine nSOC channels; PS1KI and APPKI hippocampal neurons, 300 nM applied prior to Ca2+ re-addition",rescued spine nSOC
same,spine nSOC,"spine nSOC channels; wild-type spines, 300 nM",no significant effect
same,mushroom spines,[1]; PS1KIGFP and APPKIGFP hippocampal slices,complete rescue
same,mushroom spines,[1]; WTGFP slices,no effect
same,metabolic stability in liver S9 fractions,[2],generally stable
